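Results reflect a 48-hour exposure of cells in 96-well plates to compound at five concentrations. The concentration for 50% growth inhibition is given as GI50.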 Calls of active or inactive are those of the source. Cut-off read from the data, not from the text of the source: active = GI50 up to about 1.1 µM and inactive = higher.
What was measured:
Assay in all cases: NCI anticancer screen, dose series, 48 h
[1] = tested on: SN12C
[2] = tested on: T47D
[3] = tested on: SK-MEL-28
[4] = tested on: K562
[5] = tested on: SNB-19
[6] = tested on: CCRF-CEM
[7] = tested on: NCI-H226
[8] = tested on: SNB-75
[9] = tested on: RXF 393
[10] = tested on: ACHN
[11] = tested on: MDA-N
[12] = tested on: NCI-H460
[13] = tested on: OVCAR-8
[14] = tested on: DU-145
[15] = tested on: RPMI-8226
[16] = tested on: 786-0
[17] = tested on: SF-268
[18] = tested on: UACC-257
[19] = tested on: A498
[20] = tested on: NCI-H23

Measured: GI50

Oc1ccccc1C(c1cc2c(cc1O)OCO2)N1CCOCC1 (centres undefined)
inactive: [1] 19.1 µM | [2] 16.7 µM | [3] 20.7 µM | [4] 5.25 µM | [5] 19.1 µM | [6] 2.14 µM | [7] 35.6 µM | [8] 16.4 µM | [9] 14.3 µM | [10] 17.5 µM | [11] 18.7 µM | [12] 27.4 µM | [13] 9.29 µM | [14] 37.4 µM | [15] 12.8 µM | [16] 4.89 µM | [17] 18.5 µM | [18] 19.2 µM | [19] 22.9 µM | [20] 23.6 µM

COc1cccc2cc(C(C)=O)c(=O)oc12
inactive: [1] > 100 µM | [2] 12.6 µM | [3] > 100 µM | [4] > 100 µM | [6] > 100 µM | [7] > 100 µM | [8] > 100 µM | [9] > 100 µM | [10] > 100 µM | [11] > 100 µM | [12] > 100 µM | [13] > 100 µM | [14] > 100 µM | [15] > 100 µM | [16] > 100 µM | [17] > 100 µM | [18] > 100 µM | [19] > 100 µM | [20] > 100 µM

O=C1COc2ccc([N+](=O)[O-])cc2C(=O)C1
inactive: [1] > 10 µM | [2] > 10 µM | [3] > 10 µM | [4] > 10 µM | [5] > 10 µM | [6] > 10 µM | [7] > 10 µM | [9] > 10 µM | [10] > 10 µM | [11] > 10 µM | [12] > 10 µM | [13] > 10 µM | [14] > 10 µM | [15] > 10 µM | [16] > 10 µM | [17] > 10 µM | [18] > 10 µM | [19] > 10 µM | [20] > 10 µM

CC1=CC2C3(C)C(C)(C(C)=CP3(=O)c3c(C(C)C)cc(C(C)C)cc3C(C)C)C1P2(=O)c1c(C(C)C)cc(C(C)C)cc1C(C)C (centres undefined)
active: [15] 0.916 µM
inactive: [1] 2.58 µM | [2] 1.33 µM | [3] 2.58 µM | [4] 1.91 µM | [5] 3.84 µM | [6] 2.04 µM | [7] 2.23 µM | [8] 3.05 µM | [9] 3.2 µM | [10] 2.68 µM | [11] 2.21 µM | [12] 1.47 µM | [13] 3.37 µM | [14] 3.5 µM | [16] 2.12 µM | [17] 3.3 µM | [18] 1.7 µM | [19] 2.16 µM | [20] 1.6 µM

O=C(O)C1C(C(=O)O)C23CC2(C(=O)O)C2(C(=O)O)CCC3=C3CCCC312 (centres undefined)
inactive: [1] 8.87 µM | [2] 11.8 µM | [3] 5.97 µM | [4] 12.7 µM | [5] 7.93 µM | [7] 10.4 µM | [8] 11.2 µM | [9] 6.84 µM | [10] 9.51 µM | [11] 4.79 µM | [12] 4.99 µM | [13] 10.7 µM | [14] 11.7 µM | [15] 6.01 µM | [16] 10.3 µM | [17] 4.51 µM | [18] 3.39 µM | [19] 18.3 µM | [20] 7.96 µM

CC(=O)OC[C@H]1CN(OC(C)=O)C[C@@H](n2cc(C)c(=O)[nH]c2=O)O1
inactive: [1] > 100 µM | [2] > 100 µM | [3] > 100 µM | [4] > 100 µM | [5] > 100 µM | [7] > 100 µM | [8] 61.5 µM | [9] > 100 µM | [10] > 100 µM | [11] > 100 µM | [12] > 100 µM | [13] > 100 µM | [14] > 100 µM | [15] > 100 µM | [16] > 100 µM | [17] > 100 µM | [18] > 100 µM | [19] > 100 µM

CCOc1ccccc1/N=N/C1C(=O)N(C(=O)CC(=O)Nc2ccccc2OC)N=C1C (centres undefined)
inactive: [1] > 100 µM | [2] 37 µM | [3] > 100 µM | [6] > 100 µM | [7] > 100 µM | [8] 16.3 µM | [9] 24.2 µM | [10] > 100 µM | [11] > 100 µM | [12] 42.4 µM | [13] 37.5 µM | [14] 71.3 µM | [15] 45.2 µM | [16] 56.2 µM | [17] 22.4 µM | [19] 63.4 µM | [20] 80 µM

[O-][n+]1nc(N2CCOCC2)nc2ccccc21
inactive: [1] > 100 µM | [2] > 100 µM | [3] > 100 µM | [4] > 100 µM | [5] > 100 µM | [6] > 100 µM | [7] > 100 µM | [8] > 100 µM | [9] 49.5 µM | [10] > 100 µM | [11] > 100 µM | [13] > 100 µM | [14] > 100 µM | [15] > 100 µM | [16] > 100 µM | [17] > 100 µM | [18] > 100 µM | [19] 43.3 µM | [20] > 100 µM

COc1ccc(NC(=O)CSc2nc(C)nc3c2sc(=S)n3-c2ccccc2)cc1
inactive: [1] > 10 µM | [2] > 10 µM | [3] > 10 µM | [4] > 10 µM | [5] > 10 µM | [6] > 10 µM | [7] 6.85 µM | [8] 2.97 µM | [9] > 10 µM | [10] 4.68 µM | [11] > 10 µM | [12] 3.73 µM | [13] > 10 µM | [14] > 10 µM | [15] > 10 µM | [16] 3.39 µM | [17] > 10 µM | [18] > 10 µM | [19] 5 µM | [20] > 10 µM

COc1cc(C2C(Cl)C(=O)N2NC(=O)c2ccc(NC(C)=O)cc2OC)ccc1O (centres undefined)
inactive: [1] 17.9 µM | [2] 20.9 µM | [3] 28.7 µM | [4] 18.1 µM | [5] 17.4 µM | [6] 2.64 µM | [7] 10.6 µM | [8] 29.4 µM | [9] 20.6 µM | [10] 23.3 µM | [11] 20 µM | [13] 22.2 µM | [14] 21.3 µM | [15] 1.94 µM | [16] 15.1 µM | [17] 21.8 µM | [19] 19.4 µM | [20] 17.7 µM

CC1(C)CO[P@@](=S)(c2ccccn2)O[C@@H]1c1ccccc1
inactive: [1] > 100 µM | [2] > 100 µM | [3] > 100 µM | [4] 57 µM | [5] > 100 µM | [6] 64.4 µM | [7] 76.2 µM | [8] > 100 µM | [9] > 100 µM | [10] > 100 µM | [11] > 100 µM | [12] > 100 µM | [13] > 100 µM | [14] > 100 µM | [16] > 100 µM | [17] > 100 µM | [18] > 100 µM | [19] > 100 µM | [20] 89.3 µM

COc1ccc(CCN2CCN(CCc3ccc(OC)cc3)CC2)cc1
inactive: [1] > 100 µM | [2] > 100 µM | [3] > 100 µM | [4] > 100 µM | [5] > 100 µM | [6] > 100 µM | [7] > 100 µM | [9] 26.2 µM | [10] > 100 µM | [11] > 100 µM | [12] > 100 µM | [13] > 100 µM | [14] > 100 µM | [15] > 100 µM | [16] > 100 µM | [17] > 100 µM | [18] > 100 µM | [19] > 100 µM | [20] > 100 µM

NC(=O)CC(N)C(N)=O (centres undefined)
inactive: [1] > 100 µM | [2] > 100 µM | [3] > 100 µM | [4] > 100 µM | [5] > 100 µM | [6] > 100 µM | [7] > 100 µM | [8] > 100 µM | [9] > 100 µM | [10] > 100 µM | [11] > 100 µM | [12] > 100 µM | [13] > 100 µM | [14] > 100 µM | [15] > 100 µM | [16] > 100 µM | [18] > 100 µM | [19] > 100 µM | [20] > 100 µM

N#C[BH2-][n+]1ccc(C(=O)NNCc2ccc(F)cc2)cc1
inactive: [1] > 100 µM | [2] > 100 µM | [3] > 100 µM | [4] > 100 µM | [5] > 100 µM | [6] > 100 µM | [7] > 100 µM | [8] > 100 µM | [9] > 100 µM | [10] > 100 µM | [11] > 100 µM | [12] > 100 µM | [13] > 100 µM | [14] > 100 µM | [15] > 100 µM | [16] > 100 µM | [17] > 100 µM | [18] > 100 µM | [19] > 100 µM

Nc1ccc([As](=O)(O)O)cc1 [ARSANILIC ACID]
inactive: [1] > 100 µM | [2] > 100 µM | [3] > 100 µM | [4] > 100 µM | [5] > 100 µM | [6] > 100 µM | [7] > 100 µM | [8] > 100 µM | [9] > 100 µM | [10] > 100 µM | [11] > 100 µM | [12] > 100 µM | [13] > 100 µM | [14] > 100 µM | [16] > 100 µM | [17] > 100 µM | [18] > 100 µM | [19] > 100 µM | [20] > 100 µM

Reference: ChEMBL document CHEMBL1201862, “PubChem BioAssay data set” (2004)
